Where a name gives a salt, the structure may show the parent alone.
Biological target: T1, sodium channel (ENaC), canine bronchial epithelia (Canis lupus familiaris, UniProt A0A8I3MKE6+A0A8I3Q679+Q95165)
T1 construct: endogenous in cells; host or cells: primary canine bronchial epithelial cells cultured at air-liquid interface, mounted in Ussing chambers
T1 sequence (A0A8I3Q679 1-649): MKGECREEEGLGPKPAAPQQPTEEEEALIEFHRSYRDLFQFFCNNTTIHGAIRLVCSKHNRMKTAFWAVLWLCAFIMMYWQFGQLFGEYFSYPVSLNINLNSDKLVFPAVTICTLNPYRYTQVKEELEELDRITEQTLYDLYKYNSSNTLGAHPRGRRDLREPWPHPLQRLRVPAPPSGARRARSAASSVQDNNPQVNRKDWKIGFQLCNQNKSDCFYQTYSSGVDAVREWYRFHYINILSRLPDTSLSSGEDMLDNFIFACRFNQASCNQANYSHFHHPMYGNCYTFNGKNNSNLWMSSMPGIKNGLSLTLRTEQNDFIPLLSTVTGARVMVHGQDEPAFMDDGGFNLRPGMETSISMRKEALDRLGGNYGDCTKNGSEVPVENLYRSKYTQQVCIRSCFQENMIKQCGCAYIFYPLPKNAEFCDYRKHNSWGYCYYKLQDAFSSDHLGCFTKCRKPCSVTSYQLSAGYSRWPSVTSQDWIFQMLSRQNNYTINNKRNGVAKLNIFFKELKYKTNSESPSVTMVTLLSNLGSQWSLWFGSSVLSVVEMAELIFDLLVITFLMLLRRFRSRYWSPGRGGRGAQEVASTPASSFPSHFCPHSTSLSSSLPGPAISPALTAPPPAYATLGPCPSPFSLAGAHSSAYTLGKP
T1 sequence (Q95165 1-641): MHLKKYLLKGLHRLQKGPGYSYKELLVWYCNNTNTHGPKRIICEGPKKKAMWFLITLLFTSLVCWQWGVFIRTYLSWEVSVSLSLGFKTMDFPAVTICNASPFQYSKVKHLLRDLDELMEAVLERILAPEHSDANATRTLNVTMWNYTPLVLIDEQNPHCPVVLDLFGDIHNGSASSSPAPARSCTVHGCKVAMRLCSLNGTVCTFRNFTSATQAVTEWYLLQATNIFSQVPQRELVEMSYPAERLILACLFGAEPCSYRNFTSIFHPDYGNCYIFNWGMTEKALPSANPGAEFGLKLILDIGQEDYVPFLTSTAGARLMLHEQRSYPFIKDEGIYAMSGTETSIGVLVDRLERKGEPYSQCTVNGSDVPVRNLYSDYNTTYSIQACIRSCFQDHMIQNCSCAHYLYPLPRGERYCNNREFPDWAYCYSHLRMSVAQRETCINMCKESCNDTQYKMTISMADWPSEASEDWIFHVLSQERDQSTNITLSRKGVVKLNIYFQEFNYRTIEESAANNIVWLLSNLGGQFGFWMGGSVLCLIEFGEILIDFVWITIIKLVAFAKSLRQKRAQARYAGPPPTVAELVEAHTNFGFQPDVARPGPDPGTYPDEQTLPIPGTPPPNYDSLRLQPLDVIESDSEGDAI
T1 sequence (A0A8I3MKE6 1-646): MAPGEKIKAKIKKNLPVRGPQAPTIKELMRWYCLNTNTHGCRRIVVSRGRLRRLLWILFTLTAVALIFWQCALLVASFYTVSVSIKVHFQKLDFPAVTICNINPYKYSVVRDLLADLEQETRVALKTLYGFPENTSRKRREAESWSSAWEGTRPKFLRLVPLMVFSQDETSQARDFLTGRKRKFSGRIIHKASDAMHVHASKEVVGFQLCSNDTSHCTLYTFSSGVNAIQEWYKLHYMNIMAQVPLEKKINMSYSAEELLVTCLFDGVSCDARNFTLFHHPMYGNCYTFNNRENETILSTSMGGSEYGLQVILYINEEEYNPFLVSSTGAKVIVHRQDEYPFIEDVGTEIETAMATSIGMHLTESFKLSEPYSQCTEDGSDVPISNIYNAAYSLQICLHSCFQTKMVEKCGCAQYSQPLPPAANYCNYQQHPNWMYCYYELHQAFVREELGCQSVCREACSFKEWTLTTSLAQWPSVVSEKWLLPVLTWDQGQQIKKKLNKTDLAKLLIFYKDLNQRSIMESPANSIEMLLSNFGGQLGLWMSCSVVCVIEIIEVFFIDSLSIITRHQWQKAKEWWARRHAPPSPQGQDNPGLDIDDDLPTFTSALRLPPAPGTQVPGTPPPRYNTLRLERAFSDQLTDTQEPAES
Assay: In vitro measure of sodium channel blocking activity: inhibition of short circuit current (ISC) in airway epithelial monolayers in Ussing chambers
Assay type: cell-based
Settings: mean of N runs; for Fold Amiloride** (PSA 4022 = 100) Mean: relative potency for PSA 4022 = 100 using EC50 from PSA 4022 in same run
Procedure: One assay used to assess mechanism of action and/or potency of the compounds of the present invention involves the determination of lumenal drug inhibition of airway epithelial sodium currents measured under short circuit current (ISC) using airway epithelial monolayers mounted in Ussing chambers. Cells obtained from freshly excised human, dog, sheep or rodent airways are seeded onto porous 0.4 micron Snapwell™ Inserts (CoStar), cultured at air-liquid interface (ALI) conditions in hormonally defined media, and assayed for sodium transport activity (ISC) while bathed in Krebs Bicarbonate Ringer (KBR) in Using chambers. All test drug additions are to the lumenal bath with half-log dose addition protocols (from 1×10^−11 M to 3×10^−5M), and the cumulative change in ISC (inhibition) recorded. All drugs are prepared in dimethyl sulfoxide as stock solutions at a concentration of 1×10^−2 M and stored at −20° C. […] After the maximal concentration (5×10^−5 M) is administered, the lumenal bath is exchanged three times with fresh drug-free KBR solution, and the resultant ISC measured after each wash for approximately 5 minutes in duration. Reversibility is defined as the percent return to the baseline value for sodium current after the third wash. All data from the voltage clamps are collected via a computer interface and analyzed off-line.
Dose-effect relationships for all compounds are considered and analyzed by the Prism 3.0 program.
PSA 4022 was also tested in each assay as a positive control.

| SMILES | EC50 [nM] | Fold Amiloride** (PSA 4022 = 100) Mean |
| --- | --- | --- |
| CS(=O)(=O)N(c1ccc(CCCCNC(=N)NC(=O)c2nc(Cl)c(N)nc2N)cc1)S(C)(=O)=O [PSA 10316, N-(3,5-Diamino-6-chloropyrazine-2-carbonyl)-N′-[4-(4-bis(methanesulfonyl)aminophenyl)butyl]guanidine] | 9.56 | 132 |
| C[N+](C)(C)CCOc1ccc(CCCCNC(=N)NC(=O)c2nc(Cl)c(N)nc2N)cc1.Cl.[Cl-] [PSA 11223, N-(3,5-diamino-6-chloropyrazine-2-carbonyl)-N′-{4-[4-(2-chlorotrimethylammonium)ethoxyphenyl]butyl}guanidine hydrochloride] | 14.7 | 79.6 |
| Cl.N=C(N)NCC(O)COc1ccc(CCCCNC(=N)NC(=O)c2nc(Cl)c(N)nc2N)cc1 (centres unmarked) [PSA 11975, N-(3,5-diamino-6-chloropyrazine-2-carbonyl)-N′-{4-[4-(3-guanidino-2-hydroxypropoxy)phenyl]butyl}guanidine hydrochloride] | 4.85 | 287 |
| N=C(NCCCCc1ccc(N(CCN(C[C@H](O)CO)C[C@H](O)CO)C[C@H](O)CO)cc1)NC(=O)c1nc(Cl)c(N)nc1N [PSA 16311, N-(4{4-[{2-[N,N-bis-((2S)-2,3-dihydroxypropyl)amino]ethyl}-N-((2S)-2,3-dihydroxypropyl)amino]phenyl}butyl)-N′-(3,5-diamino-6-chloropyrazine-2-carbonyl)guanidine] | 33.2 | 25.6 |
| N=C(NCCCCc1ccc(NCCNC[C@@H](O)CO)cc1)NC(=O)c1nc(Cl)c(N)nc1N [PSA 16721, N-(4-{4-[{2-[((2R)-2,3-dihydroxypropyl)amino]ethylamino}phenyl)butyl-N′-(3,5-diamino-6-chloropyrazine-2-carbonyl)guanidinetrihydrochloride] | 25.4 | 44.7 |
| N=C(NCCCCc1ccc(OCC(=O)N(CCO)CCO)cc1)NC(=O)c1nc(Cl)c(N)nc1N [PSA 16826, 2-(4-{4-[N′-(3,5-diamino-6-chloropyrazine-2-carbonyl)guanidino]-butyl}phenoxy)-N,N-bis-(2-hydroxyethyl)acetamide] | 12.7 | 64.9 |
| N=C(NCCCCc1ccc(NCCN(C[C@H](O)[C@H](O)CO)C[C@H](O)[C@H](O)CO)cc1)NC(=O)c1nc(Cl)c(N)nc1N [PSA 17218, N-[4-(4-{2-[bis-((2S,3R)-2,3,4-trihydroxybutyl)amino]ethylamino}phenyl)butyl]-N′-(3,5-diamino-6-chloropyrazine-2-carbonyl)guanidine trihydrochloride] | 32.4 | 24.7 |
| COC(=O)C(N)CCOc1ccc(CCCCNC(=N)NC(=O)c2nc(Cl)c(N)nc2N)cc1 (centres unmarked) [PSA 17587, 2-amino-4-(4-{4-[N′-(3,5-diamino-6-chloropyrazine-2-carbonyl)-guanidino]butyl}phenoxy)butyric acid methyl ester hydrochloride] | 19.4 | 31.3 |

Next, values leading:

| EC50 [nM] | Fold Amiloride** (PSA 4022 = 100) Mean | SMILES |
| --- | --- | --- |
| 32.1 | 30.0 | N=C(NCCCCc1ccc(OC[C@H](N)C(=O)O)cc1)NC(=O)c1nc(Cl)c(N)nc1N (stereo in doubt) [PSA 10941, 2-amino-3-(4-{4-[N′-(3,5-diamino-6-chloropyrazine-2-carbonyl)-guanidino]butyl}phenoxy)propionic acid] |
| 32 | 38.6 | COC(=O)[C@@H](N)COc1ccc(CCCCNC(=N)NC(=O)c2nc(Cl)c(N)nc2N)cc1 [PSA 11041, 2-amino-3-(4-{4-[N′-(3,5-diamino-6-chloropyrazine-2-carbonyl)-guanidino]butyl}phenoxy)propionic acid methyl ester] |
| 5.82 | 136 | N=C(NCCCCc1ccc(C(=O)NCCN)cc1)NC(=O)c1nc(Cl)c(N)nc1N [PSA 11698, 4-{4-[N-(3,5-diamino-6-chloropyrazine-2-carbonyl)guanidino]butyl}-N-(2-aminoethyl)benzamide hydrochloride] |
| 3.68 | 276 | Cl.N=C(N)NCCNC(=O)c1ccc(CCCCNC(=N)NC(=O)c2nc(Cl)c(N)nc2N)cc1 [PSA 11834, 4-{4-[N′-(3,5-diamino-6-chloropyrazine-2-carbonyl)guanidino]butyl}-N-(2-guanidinoethyl)benzamide hydrochloride] |
| 3.92 | 131 | N=C(NCCCCc1ccc(NC(=O)CCN)cc1)NC(=O)c1nc(Cl)c(N)nc1N [PSA 14568, dihydrochloride] |
| 3.27 | 268 | N=C(N)NCCC(=O)Nc1ccc(CCCCNC(=N)NC(=O)c2nc(Cl)c(N)nc2N)cc1 [PSA 14984, N-(4-{4-[N′-(3,5-diamino-6-chloropyrazine-2-carbonyl)guanidino]-butyl}phenyl)-3-guanidinopropionamide dihydrochloride] |
| 19.1 | 26.4 | N=C(NCCCCc1ccc(NCC(N)=O)cc1)NC(=O)c1nc(Cl)c(N)nc1N [PSA 15104, 2-(4-{4-[N′-(3,5-diamino-6-chloropyrazine-2-carbonyl)guanidino]-butyl}phenylamino)acetamide dihydrochloride] |
| 15.4 | 35.6 | N=C(NCCCCc1ccc(NCCN)cc1)NC(=O)c1nc(Cl)c(N)nc1N [PSA 16436, N-{4-[4-(2-aminoethylamino)phenyl]butyl}-N′-(3,5-diamino-6-chloropyrazine-2-carbonyl)guanidine] |
| 22.8 | 50.5 | N=C(NCCCCc1ccc(NC[C@@H](O)CO)cc1)NC(=O)c1nc(Cl)c(N)nc1N [PSA 16722, N-(3,5-diamino-6-chloropyrazine-2-carbonyl)-N′-{4-[4-((2R)-2,3-dihydroxypropylamino)phenyl]butyl}guanidine] |
| 6.83 |  | N=C(N)NCCNc1ccc(CCCCNC(=N)NC(=O)c2nc(Cl)c(N)nc2N)cc1 [PSA 17339, N-(3,5-diamino-6-chloropyrazine-2-carbonyl)-N′-{4-[(2-guanidinoethylamino)phenyl]butyl}guanidine trihydrochloride] |

Reference: patent publication US7875619B2, “Hetero substituted sodium channel blockers” (Parion Sciences, Inc., priority 2004, dated 2011)
